Laboratory results as given in ChEMBL document CHEMBL1140502, “Synthesis of some tropane derivatives of anticipated activity on the reuptake of norepinephrine and/or serotonin” (2007).

Assays:
Assay type in all cases: functional
Mus musculus [1] = organism: Mus musculus; experiment: Selectivity ratio of ED50 for 5-HT reuptake in mouse to ED50 for norepinephrine reuptake in mouse
Mus musculus [2] = experiment: Inhibition of SERT-mediated serotonin-reuptake assessed as 5-hydroxytryptophan induced mouse head twitch at 3.24 mM/kg, ip after 20 mins; parameters: scale not given: the % may be the effect or the level left
Mus musculus [3] = experiment: Inhibition of NET-mediated norepinephrine-reuptake assessed as yohimbine induced mortality in mouse at 12.94 mM/kg, ip after 24 hrs; parameters: scale not given: the % may be the effect or the level left
Mus musculus [4] = experiment: Inhibition of NET-mediated norepinephrine-reuptake assessed as yohimbine induced mortality in mouse at 3.24 mM/kg, ip after 24 hrs; parameters: scale not given: the % may be the effect or the level left
Mus musculus [5] = experiment: Inhibition of SERT-mediated serotonin-reuptake assessed as 5-hydroxytryptophan induced mouse head twitch at 4.86 mM/kg, ip after 20 mins; parameters: scale not given: the % may be the effect or the level left
Mus musculus [6] = experiment: Inhibition of NET-mediated norepinephrine-reuptake assessed as yohimbine induced mortality in mouse at 6.47 mM/kg, ip after 24 hrs; parameters: scale not given: the % may be the effect or the level left
Mus musculus [7] = experiment: Inhibition of SERT-mediated serotonin-reuptake assessed as 5-hydroxytryptophan induced mouse head twitch at 1.62 mM/kg, ip after 20 mins; parameters: scale not given: the % may be the effect or the level left
Mus musculus [8] = experiment: Inhibition of SERT-mediated serotonin-reuptake assessed as 5-hydroxytryptophan induced mouse head twitch at 6.47 mM/kg, ip after 20 mins
Mus musculus [9] = experiment: Inhibition of SERT-mediated serotonin-reuptake assessed as 5-hydroxytryptophan induced intraperitoneally dosed mouse head twitch after 20 mins; settings: ip
Mus musculus [10] = experiment: Inhibition of NET-mediated norepinephrine-reuptake assessed as yohimbine induced mortality in intraperitoneally dosed mouse after 24 hrs; settings: ip
Mus musculus [11] = experiment: Inhibition of SERT-mediated serotonin-reuptake assessed as 5-hydroxytryptophan induced mouse head twitch at 12.94 mM/kg, ip after 20 mins; parameters: scale not given: the % may be the effect or the level left
Mus musculus [12] = experiment: Inhibition of NET-mediated norepinephrine-reuptake assessed as yohimbine induced mortality in mouse at 25.89 mM/kg, ip after 24 hrs; parameters: scale not given: the % may be the effect or the level left
Mus musculus [13] = experiment: Inhibition of NET-mediated norepinephrine-reuptake assessed as yohimbine induced mortality in mouse at 19.42 mM/kg, ip after 24 hrs; parameters: scale not given: the % may be the effect or the level left
Mus musculus [14] = experiment: Inhibition of NET-mediated norepinephrine-reuptake assessed as yohimbine induced mortality in mouse at 9.71 mM/kg, ip after 24 hrs; parameters: scale not given: the % may be the effect or the level left

| SMILES | Ratio ED50 (Mus musculus [1]) | Activity (Mus musculus [2]) [%] | Activity (Mus musculus [3]) [%] | Activity (Mus musculus [4]) [%] | Activity (Mus musculus [5]) [%] | Activity (Mus musculus [6]) [%] | Activity (Mus musculus [7]) [%] | Activity (Mus musculus [8]) | ED50 (Mus musculus [9]) [µmol/kg] | ED50 (Mus musculus [10]) [µmol/kg] | Activity (Mus musculus [11]) [%] | Activity (Mus musculus [12]) | Activity (Mus musculus [13]) | Activity (Mus musculus [14]) [%] |
| --- | --- | --- | --- | --- | --- | --- | --- | --- | --- | --- | --- | --- | --- | --- |
| CN1C2CCC1CC(Oc1ccc(C#N)cc1)(c1ccc(F)cc1)C2 (stereo not drawn) | 0.59 | 50 | 100 | 16.67 | 66.67 | 66.67 | 33.33 | Toxic | 2.94 | 5020 | – | – | – | – |
| CN1C2CCC1CC(Oc1ccc(Br)cc1)(c1ccccc1)C2 (stereo not drawn) | 0.56 | 33.33 | 50 | – | – | 16.67 | – | 50% | – | 11400 | 66.67 | 100% | – | – |
| CN1C2CCC1CC(Oc1ccc(C#N)cc1)(c1ccccc1)C2 (stereo not drawn) | 1.08 | 33.33 | 83.33 | 50 | – | 50 | 16.67 | 66.67% | 4.44 | 4080 | – | – | – | – |
| CNCCC(Oc1ccc(C(F)(F)F)cc1)c1ccccc1 (stereo not drawn) [FLUOXETINE] | <0.39 | 16.67 | 0 | 0 | – | 0 | – | 50% | 5.09 | > 12900 | 100 | – | – | – |
| CN1C2CCC1CC(Oc1ccc(C(F)(F)F)cc1)(c1ccccc1)C2 (stereo not drawn) | 0.29 | 50 | 66.67 | – | – | 0 | – | 66.67% | 3.3 | 11300 | 83.33 | 100% | 66.67% | – |
| CN1C2CCC1CC(Oc1ccc([N+](=O)[O-])cc1)(c1ccccc1)C2 (stereo not drawn) | 0.29 | 50 | 50 | 0 | 66.67 | 50 | 33.33 | Toxic | 2.94 | 10300 | – | Toxic | – | – |
| CN1C2CCC1CC(Oc1cccc(C(F)(F)F)c1)(c1ccccc1)C2 (stereo not drawn) | 0.1 | 33.33 | 33.33 | 0 | – | 16.67 | – | 50% | 5.46 | 53100 | 83.33 | Toxic | Toxic | – |
| CN(C)CCCN1c2ccccc2CCc2ccc(Cl)cc21 [CLOMIPRAMINE] | 0.35 | 50 | – | 16.67 | – | – | 50 | 83.3% | 2 | 5780 | – | – | – | 66.67 |
| CN(C)CCCC1(c2ccc(F)cc2)OCc2cc(C#N)ccc21 (stereo not drawn) [CITALOPRAM] | 0.12 | 83.33 | 16.67 | – | – | 0 | 50 | 100% | 1.58 | 13700 | – | – | – | – |
| CN1C2CCC1CC(Oc1ccc(Cl)cc1)(c1ccccc1)C2 (stereo not drawn) | 0.29 | 33.33 | 33.33 | – | – | 33.33 | – | 66.67% | 4.72 | 16100 | 83.33 | 66.67% | – | – |
